According to publication PMC8602723, “Comparative assessment of antimicrobial, antiradical and cytotoxic activities of cannabidiol and its propyl analogue cannabidivarin” (Scientific Reports, 2021):

Tests used:
[1] = ABTS assay (radical scavenging); details: 50% reduction of initial ABTS radical absorbance, 6 min; 95% confidence limits in brackets
Procedure: An ABTS assay was performed following the procedure described by Lavorgna et al. 2019[66]. The cationic ABTS radical (ABTS^+) was generated by oxidizing ABTS (7 mM) with potassium persulfate (140 mM K2S2O8), and the mixture was incubated for 12–16 h in the dark. The ABTS^+ working solution was diluted to an absorbance of […] OD at 734 nm. […] Distilled water was used for the blank, Trolox was used for the standard control, and methanol was used for the solvent control.
The results are expressed as the median effective concentration (EC50). Furthermore, Trolox equivalent antioxidant capacity (TEAC) values were calculated following the procedure used by Shimamura end colleagues[68]:5 TEAC=EC50Trolox/EC50sample
(§1) All results from five independent experiments are expressed as the IC50 or EC50 as determined by analysis with Prism 5 software (GraphPad Inc., San Diego, CA, USA) and nonlinear regression (log agonist vs. normalized response-variable slope) with a 95% confidence range. Lowest observed adverse effect concentrations (LOAECs) were calculated by one-way ANOVA and Dunnett’s comparison test. Differences compared to the controls were considered significant as follows: *p < 0.05, **p < 0.001 and ***p < 0.0001.

[2] = DPPH assay (radical scavenging); details: 50% reduction of initial DPPH radical absorbance, 30 min; 95% confidence limits in brackets
Procedure: DPPH assay was performed following the protocol described by Brand-Williams et al.[69]. DPPH^⋅ was dissolved in methanol, generating a purple solution (101.43 µM). […] Furthermore, 940 μL of methanol and 60 μL of distilled water were used for the blank. Trolox was used as the standard control, and methanol was used as the solvent control.
The results were expressed as the median effective concentration of sample able to reduce the initial absorbance of the DPPH radical (EC50). Furthermore, TEAC values were calculated in line with Shimamura end colleagues[68] as previously reported.
as §1

Cc1c(C)c2c(c(C)c1O)CCC(C)(C(=O)O)O2 (centres unmarked) [TROLOX, 6-Hydroxy-2,5,7,8-tetramethylchromane 2-carboxylic acid, reference compound]
EC50 [1]: 111 µM
EC50 [2]: 327 µM
